{"source": "ChEMBL document CHEMBL3217667", "about": "“Extended side chain analogues of 8-aminoquinolines: Synthesis and evaluation of antiprotozoal, antimicrobial, -hematin inhibition, and cytotoxic activities” (Medchemcomm, 2011)", "key": {"Plasma": {"test_system": "Plasma", "assay": "Half life in human plasma", "type": "ADME, cell-free"}, "Vero": {"test_system": "Vero", "assay": "Cytotoxicity against African green monkey Vero cells by neutral red uptake assay", "type": "cell-based", "conditions": "Chlorocebus sabaeus"}, "Leishmania donovani": {"test_system": "Leishmania donovani", "assay": "Antileishmanial activity against Leishmania donovani promastigotes by Alamar Blue assay", "type": "functional, organism-based"}, "[1]": {"assay": "Inhibition of beta-hematin formation after 16 hrs", "type": "physicochemical"}, "[2]": {"test_system": "Mycobacterium intracellulare", "assay": "Antibacterial activity against Mycobacterium intracellulare", "type": "functional, organism-based"}, "Plasmodium falciparum [3]": {"test_system": "Plasmodium falciparum", "assay": "Antimalarial activity against chloroquine-resistant Plasmodium falciparum W2 by lactate dehydrogenase assay", "type": "functional, organism-based", "conditions": "Plasmodium falciparum, W2; read-out: IC50"}, "Plasmodium berghei": {"test_system": "Plasmodium berghei", "assay": "Antimalarial activity against Plasmodium berghei infected in mouse assessed as reduction in parasitemia at 100 mg/kg/day, po for 4 days measured up to day 14", "type": "functional"}, "Nakaseomyces glabratus": {"test_system": "Nakaseomyces glabratus", "assay": "Antifungal activity against Candida glabrata by broth microdilution assay", "type": "functional, organism-based"}, "Escherichia coli": {"test_system": "Escherichia coli", "assay": "Antibacterial activity against Escherichia coli", "type": "functional, organism-based"}, "[4]": {"assay": "Selectivity index, ratio of IC50 for African green monkey Vero cells to IC50 for chloroquine-resistant Plasmodium falciparum W2", "type": "toxicity, cell-based", "conditions": "read-out: Ratio IC50"}, "[5]": {"test_system": "Mycobacterium intracellulare", "assay": "Antibacterial activity against Mycobacterium intracellulare up to 20 ug/ml", "type": "functional, organism-based"}, "Pseudomonas aeruginosa": {"test_system": "Pseudomonas aeruginosa", "assay": "Antibacterial activity against Pseudomonas aeruginosa", "type": "functional, organism-based"}, "SK-OV-3": {"test_system": "SK-OV-3", "assay": "Cytotoxicity against human SKOV3 cells by neutral red uptake assay", "type": "cell-based"}, "Cryptococcus neoformans": {"test_system": "Cryptococcus neoformans", "assay": "Antifungal activity against Cryptococcus neoformans by broth microdilution assay", "type": "functional, organism-based"}, "Candida albicans": {"test_system": "Candida albicans", "assay": "Antifungal activity against Candida albicans by broth microdilution assay", "type": "functional, organism-based"}, "KB": {"test_system": "KB", "assay": "Cytotoxicity against human KB cells by neutral red uptake assay", "type": "cell-based"}, "Aspergillus fumigatus": {"test_system": "Aspergillus fumigatus", "assay": "Antifungal activity against Aspergillus fumigatus by broth microdilution assay", "type": "functional, organism-based"}, "Pichia kudriavzevii": {"test_system": "Pichia kudriavzevii", "assay": "Antifungal activity against Candida krusei by broth microdilution assay", "type": "functional, organism-based"}, "SK-MEL": {"test_system": "SK-MEL", "assay": "Cytotoxicity against human SK-MEL cells by neutral red uptake assay", "type": "cell-based"}, "Staphylococcus aureus [6]": {"test_system": "Staphylococcus aureus", "assay": "Antibacterial activity against Staphylococcus aureus up to 20 ug/ml", "type": "functional, organism-based"}, "LLC-PK1": {"test_system": "LLC-PK1", "assay": "Cytotoxicity against pig LLC-PK1 cells by neutral red uptake assay", "type": "cell-based", "conditions": "Sus scrofa"}, "[7]": {"assay": "Selectivity index, ratio of IC50 for African green monkey Vero cells to IC50 for chloroquine-sensitive Plasmodium falciparum D6", "type": "toxicity, cell-based", "conditions": "read-out: Ratio IC50"}, "Staphylococcus aureus [8]": {"test_system": "Staphylococcus aureus", "assay": "Antibacterial activity against Staphylococcus aureus", "type": "functional, organism-based"}, "Plasmodium falciparum [9]": {"test_system": "Plasmodium falciparum", "assay": "Antimalarial activity against chloroquine-sensitive Plasmodium falciparum D6 by lactate dehydrogenase assay", "type": "functional, organism-based", "conditions": "Plasmodium falciparum, D6; read-out: IC50"}, "Staphylococcus aureus [10]": {"test_system": "Staphylococcus aureus", "assay": "Antibacterial activity against methicillin-resistant Staphylococcus aureus", "type": "functional, organism-based"}, "BT-549": {"test_system": "BT-549", "assay": "Cytotoxicity against human BT549 cells by neutral red uptake assay", "type": "cell-based"}}, "note": "The source made the active and inactive calls. The rule behind the calls is not given here."}
{"smiles": "COc1cc(NC(C)CCCN)c2ncccc2c1", "note": "(centres undefined) [PRIMAQUINE]", "values": [{"measurement": "t1/2", "setting": "Plasma", "result": 4, "unit": "h"}, {"measurement": "IC50", "setting": "Vero", "result": "> 23.8", "unit": "µg/mL"}, {"measurement": "IC90", "setting": "Leishmania donovani", "result": "inactive"}, {"measurement": "IC50", "setting": "[1]", "result": "> 1000", "unit": "µM"}]}
{"smiles": "CCCCCCCCOc1c(OC)cc(NC(C)CCCNC(C)CCCN)c2nccc(CC)c12.Cl", "note": "(centres undefined)", "values": [{"measurement": "IC50", "setting": "[2]", "result": "> 20", "unit": "µg/mL"}, {"measurement": "IC50", "setting": "Plasmodium falciparum [3]", "result": 0.82, "unit": "µg/mL"}, {"measurement": "Activity", "setting": "Plasmodium berghei", "result": "inactive"}, {"measurement": "Activity", "setting": "Nakaseomyces glabratus", "result": "inactive"}, {"measurement": "Activity", "setting": "Escherichia coli", "result": "inactive"}, {"measurement": "selectivity ratio", "setting": "[4]", "result": "> 29"}, {"measurement": "Activity", "setting": "[5]", "result": "inactive"}, {"measurement": "Activity", "setting": "Pseudomonas aeruginosa", "result": "inactive"}, {"measurement": "IC50", "setting": "SK-OV-3", "result": "> 23.8", "unit": "µg/mL"}, {"measurement": "IC50", "setting": "Cryptococcus neoformans", "result": 8.5, "unit": "µg/mL"}, {"measurement": "MFC", "setting": "Cryptococcus neoformans", "result": 20, "unit": "µg/mL"}, {"measurement": "MIC", "setting": "Cryptococcus neoformans", "result": 20, "unit": "µg/mL"}, {"measurement": "Activity", "setting": "Candida albicans", "result": "inactive"}, {"measurement": "IC50", "setting": "KB", "result": "> 23.8", "unit": "µg/mL"}, {"measurement": "IC50", "setting": "Vero", "result": "> 23.8", "unit": "µg/mL"}, {"measurement": "Activity", "setting": "Aspergillus fumigatus", "result": "inactive"}, {"measurement": "Activity", "setting": "Pichia kudriavzevii", "result": "inactive"}, {"measurement": "IC50", "setting": "SK-MEL", "result": "> 23.8", "unit": "µg/mL"}, {"measurement": "Activity", "setting": "Staphylococcus aureus [6]", "result": "inactive"}, {"measurement": "IC50", "setting": "LLC-PK1", "result": "> 23.8", "unit": "µg/mL"}, {"measurement": "selectivity ratio", "setting": "[7]", "result": "> 25.8"}, {"measurement": "IC50", "setting": "Staphylococcus aureus [8]", "result": 14.5, "unit": "µg/mL"}, {"measurement": "IC50", "setting": "Plasmodium falciparum [9]", "result": 0.92, "unit": "µg/mL"}, {"measurement": "IC50", "setting": "Staphylococcus aureus [10]", "result": 10.4, "unit": "µg/mL"}, {"measurement": "MBC", "setting": "Staphylococcus aureus [10]", "result": 20, "unit": "µg/mL"}, {"measurement": "MIC", "setting": "Staphylococcus aureus [10]", "result": 20, "unit": "µg/mL"}, {"measurement": "IC50", "setting": "Leishmania donovani", "result": 17, "unit": "µg/mL"}, {"measurement": "IC90", "setting": "Leishmania donovani", "result": 32, "unit": "µg/mL"}, {"measurement": "IC50", "setting": "BT-549", "result": "> 23.8", "unit": "µg/mL"}, {"measurement": "IC50", "setting": "[1]", "result": 15.7, "unit": "µM"}]}
